From US10227346B2, “Methyl- and trifluoromethyl-substituted pyrrolopyridine modulators of RORC2 and methods of use therof” (Pfizer Inc., priority 2014, dated 2019)

system: IL-17 production from human Th17 cells; assay: IL-17 production from human Th17 cells; type: cell-based; conditions: IL-17A in supernatant by ELISA after 6 days, human CD4+ T cells under Th17 differentiation;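 also: purified human CD4+ T cells activated with anti-CD3 plus anti-CD28 and a Th17-inducing cytokine cocktail, with compound at serial concentrations versus no compound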

`Cc1c(NC(=O)c2cc(O)cc(C#N)c2)cnc2c1c([C@@H]1CCN(C(=O)C3CCCC3)C(C)(C)C1)cn2C` [Example 64, (R)-3-cyano-N-(3-(1-(cyclopentanecarbonyl)-2,2-dimethylpiperidin-4-yl)-1,4-dimethyl-1H-pyrrolo[2,3-b]pyridin-5-yl)-5-hydroxybenzamide] and `COc1cc(Cl)cc(C(=O)Nc2cnc3c(c([C@@H]4CCN(C(=O)C5CCCC5)C(C)(C)C4)cn3C)c2C)c1` [Example 63, (R)-3-chloro-N-(3-(1-(cyclopentane-carbonyl)-2,2-dimethylpiperidin-4-yl)-1,4-dimethyl-1H-pyrrolo[2,3-b]pyridin-5-yl)-5-methoxybenzamide] are within 1.5-fold of each other in IC50: 10.2 nM for the first, 12 nM for the second.

First: Cn1cc(C2CCN(C(=O)CC3CCCCC3)CC2)c2c(C(F)(F)F)c(NC(=O)c3cccc(C#N)c3)cnc21 [Example 20, 3-cyano-N-(3-(1-(2-cyclohexylacetyl)piperidin-4-yl)-1-methyl-4-(trifluoromethyl)-1H-pyrrolo[2,3-b]pyridin-5-yl)benzamide]
Second: Cn1cc(C2CCN(C(=O)CC3CCC3)CC2)c2c(C(F)(F)F)c(NC(=O)c3cccc(C#N)c3)cnc21 [Example 18, 3-cyano-N-(3-(1-(2-cyclobutylacetyl)piperidin-4-yl)-1-methyl-4-(trifluoromethyl)-1H-pyrrolo[2,3-b]pyridin-5-yl)benzamide]
The IC50 of the first is 1.7-fold higher: 18.5 nM for the first, 10.8 nM for the second.

`COc1ccc(C(=O)Nc2cnc3c(c(C4CCN(C(=O)C(C)C)CC4)cn3C)c2C)cc1C#N` [Example 110, 3-cyano-N-(3-(1-isobutyrylpiperidin-4-yl)-1,4-dimethyl-1H-pyrrolo[2,3-b]pyridin-5-yl)-4-methoxybenzamide] and `CC(C)C(=O)N1CCC(c2cn(C)c3ncc(NC(=O)c4ccc(F)c(C#N)c4)c(C(F)(F)F)c23)CC1` [Example 9, 3-cyano-4-fluoro-N-(3-(1-isobutyrylpiperidin-4-yl)-1-methyl-4-(trifluoromethyl)-1H-pyrrolo[2,3-b]pyridin-5-yl)benzamide] are within 1.5-fold of each other in IC50: 24.7 nM for the first, 27.5 nM for the second.

`Cc1c(NC(=O)c2cccc(C#N)c2)cnc2c1c([C@@H]1CCN(C(=O)CC3CCC3)C(C)(C)C1)cn2C` [Example 76, (R)-3-cyano-N-(3-(1-(2-cyclobutylacetyl)-2,2-dimethylpiperidin-4-yl)-1,4-dimethyl-1H-pyrrolo[2,3-b]pyridin-5-yl)benzamide] and `Cc1c(NC(=O)c2cccc(C#N)c2)cnc2c1c([C@@H]1CCN(C(=O)CC3CCCC3)C(C)(C)C1)cn2C` [Example 74, (R)-3-cyano-N-(3-(1-(2-cyclopentylacetyl)-2,2-dimethylpiperidin-4-yl)-1,4-dimethyl-1H-pyrrolo[2,3-b]pyridin-5-yl)benzamide] are within 1.5-fold of each other in IC50: 5 nM for the first, 3.6 nM for the second.

Going from `Cc1c(NC(=O)c2cccc(C#N)c2)cnc2c1c(C1CCN(C(=O)[C@@H]3CCC[C@H]3C)CC1)cn2C` (single isomer, unassigned) [Example 47] to `Cc1c(NC(=O)c2cccc(C#N)c2)cnc2c1c(C1CCN(C(=O)[C@H]3CCC[C@@H]3C)CC1)cn2C` (single isomer, unassigned) [Example 46], the IC50 rises from 8.4 nM to 57.4 nM (6.8-fold). The first is the more potent here.

Compared with `Cn1cc(C2CCN(C(=O)[C@H]3CCCS3)CC2)c2c(C(F)(F)F)c(NC(=O)c3cccc(C#N)c3)cnc21` (single isomer, unassigned) [Example 28], `Cn1cc(C2CCN(C(=O)[C@H]3C[C@H]4CCCC[C@H]4C3)CC2)c2c(C(F)(F)F)c(NC(=O)c3cccc(C#N)c3)cnc21` [Example 16, 3-cyano-N-(1-methyl-3-(1-((2r,3aR,7aS)-octahydro-1H-indene-2-carbonyl)piperidin-4-yl)-4-(trifluoromethyl)-1H-pyrrolo[2,3-b]pyridin-5-yl)benzamide] is 11-fold lower in IC50: 118 nM for the first, 10.7 nM for the second. The second is the more potent here.

Going from `CC(C)C(=O)N1CCC(c2cn(C)c3ncc(NC(=O)c4ccc(Cl)c(C#N)c4)c(C(F)(F)F)c23)CC1` [Example 11, 4-chloro-3-cyano-N-(3-(1-isobutyrylpiperidin-4-yl)-1-methyl-4-(trifluoromethyl)-1H-pyrrolo[2,3-b]pyridin-5-yl)benzamide] to `CC(C)C(=O)N1CCC(c2cn(C)c3ncc(NC(=O)c4ccc(F)c(Cl)c4)c(C(F)(F)F)c23)CC1` [Example 12, 3-chloro-4-fluoro-N-(3-(1-isobutyrylpiperidin-4-yl)-1-methyl-4-(trifluoromethyl)-1H-pyrrolo[2,3-b]pyridin-5-yl)benzamide], the IC50 rises from 7.8 nM to 57.9 nM (7.4-fold). The first is the more potent here.

Compared with `Cn1cc(C2CCN(C(=O)C3CCCC3)CC2)c2c(C(F)(F)F)c(NC(=O)c3cc(O)cc(C#N)c3)cnc21` [Example 55, 3-cyano-N-(3-(1-(cyclopentanecarbonyl)piperidin-4-yl)-1-methyl-4-(trifluoromethyl)-1H-pyrrolo[2,3-b]pyridin-5-yl)-5-hydroxybenzamide], `Cn1cc(C2CCN(C(=O)C3CCCC3)CC2)c2c(C(F)(F)F)c(NC(=O)c3ccc(F)c(C#N)c3)cnc21` [Example 3, 3-cyano-N-(3-(1-(cyclopentanecarbonyl)piperidin-4-yl)-1-methyl-4-(trifluoromethyl)-1H-pyrrolo[2,3-b]pyridin-5-yl)-4-fluorobenzamide] is 6.5-fold higher in IC50: 6 nM for the first, 39.2 nM for the second.

Compared with `Cc1ccc(C(=O)Nc2cnc3c(c([C@@H]4CCN(C(=O)C5CCCC5)C(C)(C)C4)cn3C)c2C)cc1C#N` [Example 59, (R)-3-cyano-N-(3-(1-(cyclopentanecarbonyl)-2,2-dimethylpiperidin-4-yl)-1,4-dimethyl-1H-pyrrolo[2,3-b]pyridin-5-yl)-4-methylbenzamide], `Cc1c(NC(=O)c2ccc(F)c(C#N)c2)cnc2c1c([C@@H]1CCN(C(=O)C3CCCC3)C(C)(C)C1)cn2C` [Example 61, (R)-3-cyano-N-(3-(1-(cyclopentanecarbonyl)-2,2-dimethylpiperidin-4-yl)-1,4-dimethyl-1H-pyrrolo[2,3-b]pyridin-5-yl)-4-fluorobenzamide] is 2.6-fold higher in IC50: 9.9 nM for the first, 25.6 nM for the second. The first is the more potent here.

First: Cc1c(NC(=O)c2cccc(C#N)c2)cnc2c1c(C1CCN(C(=O)[C@@H]3CCCC3C(C)C)CC1)cn2C (stereo in doubt) [Example 49, 3-cyano-N-(3-(1-((1R,2R)-2-isopropylcyclopentane-1-carbonyl)piperidin-4-yl)-1,4-dimethyl-1H-pyrrolo[2,3-b]pyridin-5-yl)benzamide]
Second: Cc1c(NC(=O)c2cccc(C#N)c2)cnc2c1c(C1CCN(C(=O)[C@H](C)C34CC(C3)C4)CC1)cn2C [Example 50, (R)—N-(3-(1-(2-(bicyclo[1.1.1]pentan-1-yl)propanoyl)piperidin-4-yl)-1,4-dimethyl-1H-pyrrolo[2,3-b]pyridin-5-yl)-3-cyanobenzamide]
The IC50 of the first is 2.4-fold higher: 8 nM for the first, 3.4 nM for the second. The second is the more potent here.

Going from `Cc1c(NC(=O)c2cccc(C#N)c2)cnc2c1c([C@@H]1CCN(C(=O)C(C)C)[C@@H](C)C1)cn2C` [Example 113, 3-cyano-N-(3-((2S,4R)-1-isobutyryl-2-methylpiperidin-4-yl)-1,4-dimethyl-1H-pyrrolo[2,3-b]pyridin-5-yl)benzamide] to `Cc1c(NC(=O)c2cccc(C#N)c2)cnc2c1c([C@H]1C[C@H](C)N(C(=O)C3CCCC3)C[C@H]1C)cn2C` (relative stereo) [Example 97, rel-3-cyano-N-(3-((2S,4S,5S)-1-(cyclopentanecarbonyl)-2,5-dimethylpiperidin-4-yl)-1,4-dimethyl-1H-pyrrolo[2,3-b]pyridin-5-yl)benzamide], the IC50 rises from 29.8 nM to 124 nM (4.2-fold). The first is the more potent here.

First: Cc1c(NC(=O)c2cc(Cl)ccc2F)cnc2c1c(C1CCN(C(=O)[C@H](C)C(C)(C)C)CC1)cn2C [Example 41, (R)-5-chloro-N-(1,4-dimethyl-3-(1-(2,3,3-trimethylbutanoyl)piperidin-4-yl)-1H-pyrrolo[2,3-b]pyridin-5-yl)-2-fluorobenzamide]
Second: COc1cc(Cl)cc(C(=O)Nc2cnc3c(c(C4CCN(C(=O)[C@H](C)C(C)(C)C)CC4)cn3C)c2C)c1 [Example 42, (R)-3-chloro-N-(1,4-dimethyl-3-(1-(2,3,3-trimethylbutanoyl)piperidin-4-yl)-1H-pyrrolo[2,3-b]pyridin-5-yl)-5-methoxybenzamide]
The IC50 of the first is 1.7-fold lower: 18.9 nM for the first, 31.3 nM for the second. The first is the more potent here.

`CC(C)C(=O)N1C[C@H]2CC[C@@H](C1)[C@@H]2c1cn(C)c2ncc(NC(=O)c3cccc(C#N)c3)c(C(F)(F)F)c12` [Example 77, 3-cyano-N-(3-((1R,5S,8r)-3-isobutyryl-3-azabicyclo[3.2.1]octan-8-yl)-1-methyl-4-(trifluoromethyl)-1H-pyrrolo[2,3-b]pyridin-5-yl)benzamide] and `COc1cc(C#N)cc(C(=O)Nc2cnc3c(c([C@@H]4CCN(C(=O)C5CCCC5)[C@@H](C)C4)cn3C)c2C)c1` [Example 90, 3-cyano-N-(3-((2S,4R)-1-(cyclopentanecarbonyl)-2-methylpiperidin-4-yl)-1,4-dimethyl-1H-pyrrolo[2,3-b]pyridin-5-yl)-5-methoxybenzamide] are within 1.5-fold of each other in IC50: 8.9 nM for the first, 12.2 nM for the second.
